What was measured:
[1] = Excitation and fluorescence emission wavelength measurement; type: physicochemical; design: Stokes shift (λem − λex): unit not given here; conditions: aqueous solution: 10 mg/mL solution in DMSO diluted 500-fold with purified water
Experimental: It should be noted that the excitation wavelength and the fluorescence emission wavelength of the staining compound were determined by measuring an aqueous solution, which had been obtained by diluting 500-fold a 10 mg/mL solution of the staining compound in DMSO with purified water, with a fluorescence spectrophotometer FL 4500 manufactured by Hitachi High-Technologies Corporation.

Zebrafish juveniles = experiment: In vivo labelling of Zebrafish juveniles with probe for biological specimen; design: key to Staining property: +++: stained; −: no stained; key to Fluorescence sensitivity: +++: strongly observed; ++: moderately observed; +: weakly observed; −: no stained; conditions: 1 hour; for Fluorescence sensitivity / Staining property: 10 ng/mL; for Fluorescence sensitivity: fluorescence intensity visually evaluated; for Staining property: visually evaluated; for Site(s) to be labelled: 10 ng/mL in water, stereoscopic microscope
Outline: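 Five zebrafish juveniles were immersed in distilled water containing staining compound at 10 ng/mL (DMSO solution) for 1 hour. They were then washed three times with Egg Water, immobilised in 3% methylcellulose and imaged by stereomicroscope. Staining and fluorescence intensity were scored visually on a +++ to − scale.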

Zebrafish liver section = experiment: Ex vivo labelling: tissue section of stained Zebrafish; design: key to Staining property: +++: stained; −: no stained; key to Fluorescence sensitivity: +++: strongly observed; ++: moderately observed; +: weakly observed; −: no stained; conditions: 50 μm, fish stained as in Example 5, PFA fixed
Experimental: Zebrafish which had been stained by the operation in Example 5 was taken out and fixed with a 4% solution of paraformaldehyde (PFA) in PBS. After that, a tissue section having a thickness of 50 μm was prepared with a linear slicer PRO7 (manufactured by Dosaka EM Co., Ltd.) (Table 3). The section was collected on an MAS-coated slide glass (manufactured by Matsunami Glass Ind., Ltd.), mounted with Fluoromount G (manufactured by Southern Biotechnology), and then covered with a cover glass.

[2] = Storage stability of staining compound solution in DMSO; type: physicochemical; conditions: 10 ng/mL in DMSO, closed glass container, normal temperature, 1 month; rate of change of absorbance and fluorescence intensity
Outline: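 Compounds held as 10 ng/mL DMSO solutions in closed glass containers at normal temperature for 1 month. Rates of change in absorbance and fluorescence intensity at a given wavelength versus start were scored: +++ <5%, ++ 5–15%, − >15%.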

[3] = system: human small intestine section; experiment: In vitro labelling of human frozen tissue section slide; type: cell-based; design: key to Staining property: +++: stained; −: no stained; key to Fluorescence sensitivity: +++: strongly observed; ++: moderately observed; +: weakly observed; −: no stained; conditions: 10 ng/mL aqueous solution, 1 hour
Experimental: (§1) A human frozen tissue section slide (manufactured by BioChain Institute, Inc.) shown in Table 3 was immersed in a 10 ng/mL aqueous solution of each of the staining compounds shown in Table 3 for 1 hour. Next, the slide was washed three times with PBS for 10 minutes, mounted with Fluoromount G (manufactured by Southern Biotechnology), and then covered with a cover glass.

[4] = system: human liver tumor section; experiment: as above; type: cell-based; design: key to Staining property: +++: stained; −: no stained; key to Fluorescence sensitivity: +++: strongly observed; ++: moderately observed; +: weakly observed; −: no stained; conditions: 10 ng/mL aqueous solution, 1 hour
Experimental: as §1

SMILES | Excitation wavelength λex [1] [nm] | Fluorescence emission wavelength λem [1] [nm] | Stokes shift (λem − λex) [1] | Fluorescence sensitivity (Zebrafish juveniles) | Staining property (Zebrafish juveniles) | Fluorescence sensitivity (Zebrafish liver section) | Staining property (Zebrafish liver section) | Storage stability [2] | Fluorescence sensitivity [3] | Staining property [3] | Site(s) to be labelled (Zebrafish juveniles) | Fluorescence sensitivity [4] | Staining property [4]
COc1ccc2cc(N3c4ccc(/C=C(\C#N)C(=O)O)cc4C4CCCC43)ccc2c1 (centres unmarked) [Dye 6] | 474 | 610 | 136 | +++ | +++ | +++ | +++ | +++ (rates of change of the absorbance and the fluorescence intensity are less than 5%, and thus, the storage stability is highly excellent) | – | – | – | – | –
CCN1C(=O)/C(=c2\s/c(=C/c3ccc4c(c3)C3CCCC3N4c3ccc(SC)cc3)c(=O)n2CC(=O)O)SC1=S (centres unmarked) [Dye 18] | 570 | 699 | 129 | +++ | +++ | – | – | +++ (rates of change of the absorbance and the fluorescence intensity are less than 5%, and thus, the storage stability is highly excellent) | +++ | +++ | blood vessel, gallbladder, and gastrointestinal | – | –
O=C(O)C[n+]1c(/C=C/c2cc(Br)c3c(c2)C2CCCC2N3c2ccccc2)sc2ccccc21 (centres unmarked) [Dye 23] | 545 | 636 | 91 | +++ | +++ | – | – | +++ (rates of change of the absorbance and the fluorescence intensity are less than 5%, and thus, the storage stability is highly excellent) | – | – | nose | +++ | +++

Source: patent US9801960B2, “Probe for a biological specimen and labelling method and screening method using the probe” (CANON KABUSHIKI KAISHA, priority 2008, dated 2017)
